In patent US20160051665A1, “INDUCTION OF IMMUNE RESPONSE” (priority 2010, published 2016):

What was measured:
[1] = test system: HLA-A2 expressing T2 target cells; test: interferon-γ ELISpot: peptide-primed CTLs against peptide-pulsed T2 cells; assay type: cell-based, human; conditions: PBMCs of healthy HLA-A2 donors stimulated in vitro with peptide; FIG. 2A
Method: Heparinized blood from healthy HLA-A2 donors was purchased from Research Blood Components, LLC, (Brighton, Mass.). Peripheral blood mononuclear cells were purified and cultured as described (13, 21). After initial stimulation with synthetic peptide, T cells were re-stimulated with CD4/CD8 T cell depleted autologous monocytes pulsed with synthetic peptide at 10 μg/ml for 5 days. IL-2 treatment and in vitro re-stimulation were repeated thrice prior to use of in vitro expanded T cells in ELISpot assays.
In vitro expanded CTLs were used as effectors in ELISpot assays to assess antigen stimulated interferon-γ release according to the manufacturer's instructions (BD-Pharmingen, San Jose, Calif.). Target cells were HepG2 human hepatoma cells (HBV negative; American Type Culture Collection) or HBV-containing HepG2.2.15 cells (22). […]
Peptides presented on the surface of a cell in the context of the MHC class I complex should be recognized with high sensitivity upon incubation with cognate peptide-primed CTLs, with specific killing of the target cells. […] Target cell recognition was quantified by interferon-γ ELISpot assay.
The ability of in vitro generated CTLs to recognize and secrete interferon-γ was evaluated by ELISpot assay. […] The P value was calculated from a Student's t-Test analysis of experimental results.

[2] = test system: oligosaccharide addition; conditions: cited from earlier work
[3] = molecular target: T1, glucosidase I (Homo sapiens, UniProt Q13724); conditions: cited from earlier work
T1 sequence (Q13724 1-837): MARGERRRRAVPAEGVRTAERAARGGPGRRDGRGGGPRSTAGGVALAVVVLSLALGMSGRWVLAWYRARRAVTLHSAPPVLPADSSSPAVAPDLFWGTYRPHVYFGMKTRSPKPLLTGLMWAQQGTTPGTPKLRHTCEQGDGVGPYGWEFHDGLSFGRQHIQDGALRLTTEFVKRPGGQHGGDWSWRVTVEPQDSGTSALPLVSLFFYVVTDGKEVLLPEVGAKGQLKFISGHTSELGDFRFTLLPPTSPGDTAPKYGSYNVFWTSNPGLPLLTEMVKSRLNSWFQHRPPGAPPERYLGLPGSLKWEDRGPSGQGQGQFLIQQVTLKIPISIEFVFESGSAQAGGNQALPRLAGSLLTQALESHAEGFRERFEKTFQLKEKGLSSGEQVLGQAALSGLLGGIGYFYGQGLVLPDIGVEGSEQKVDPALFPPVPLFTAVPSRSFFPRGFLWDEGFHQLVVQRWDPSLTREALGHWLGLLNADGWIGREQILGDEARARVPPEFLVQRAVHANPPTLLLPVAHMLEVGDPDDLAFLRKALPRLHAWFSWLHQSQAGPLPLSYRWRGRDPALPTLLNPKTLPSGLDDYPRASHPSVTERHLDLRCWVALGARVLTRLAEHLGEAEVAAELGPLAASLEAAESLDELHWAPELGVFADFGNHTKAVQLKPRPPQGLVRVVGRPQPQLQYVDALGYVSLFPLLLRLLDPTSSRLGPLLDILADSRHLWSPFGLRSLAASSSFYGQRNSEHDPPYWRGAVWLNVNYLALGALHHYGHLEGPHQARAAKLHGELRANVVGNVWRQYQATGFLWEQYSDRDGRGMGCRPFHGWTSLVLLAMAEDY

[4] = test system: woodchuck hepatitis virus (WHV); conditions: previous study (ref. 11); cited from earlier work

Compound	elicitation of specific CTLs that recognize T2 target cells [1]	prevention of oligosaccharide addition [2]	also measured
KPSDGDCTC [D-peptide, de-N-glycosylated 'D' substituted HBs peptide]	effective elicitors of specific CTLs	–	–
KPSDGNCTC [N-peptide]	effective elicitors of specific CTLs	–	–
O[C@H]1[C@H](O)[C@@H](O)CN2CC[C@H](O)[C@H]12 [Castanospermine]	–	does not	potency as inhibitor of glucosidase I relative to deoxynojirimycin [3]: more potent inhibitors of glucosidase I than deoxynojirimycin
CCCCCCCCCN1C[C@H](O)[C@@H](O)[C@H](O)[C@H]1CO [N-nonyl deoxynojirimycin]	–	–	antiviral activity in woodchucks [4]: antiviral activity had previously been observed
OC[C@H]1NC[C@H](O)[C@@H](O)[C@@H]1O [deoxynojirimycin]	–	prevents oligosaccharide addition some fraction of the time	–
